Test results: the supplement of paper PMC10307832

Tests used:
Assay in all cases: relative viability (nuclei count vs DMSO), 5 days (fraction); higher = more cells survive
[1] = compound: O=C(NC1CCNCC1)c1n[nH]cc1NC(=O)c1c(Cl)cccc1Cl [AT-7519] + NC(=O)Nc1cc(-c2cccc(F)c2)sc1C(=O)N[C@H]1CCCNC1 [AZD7762] (partner 0.2 µM)
How it was run: (§1)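 For relative viability, nuclei counts in treated wells were divided by those in vehicle wells. Lung cancer cell lines had been pin-tool dosed in 1536-well plates the day after seeding and cultured for 5 days, then fixed and stained in one step (final 0.05% Triton X-100, 1% formaldehyde, 1 ug/ml Hoechst) and imaged at 4×. Doses were one drug alone or a fixed anchor-drug dose plus five library-drug doses (not always all listed) in √10 steps, and values are duplicate-plate medians.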

[2] = compound: C1=CC2=C(C=C(C(=C2N=C1)O)N=NC3=CC4=C(C=C3)C=C(C=C4)S(=O)(=O)O)S(=O)(=O)O + C[C@@H](Oc1cc(-c2cnn(C3CCNCC3)c2)cnc1N)c1c(Cl)ccc(F)c1Cl [Crizotinib] (partner 1 µM)
How it was run: as §1

[3] = compound: O=C(NC1CCNCC1)c1n[nH]cc1NC(=O)c1c(Cl)cccc1Cl [AT-7519] + CC(C)C[C@H](NC(=O)[C@H](Cc1ccccc1)NC(=O)c1cnccn1)B(O)O [Bortezomib] (partner 0.002 µM)
How it was run: as §1

[4] = compound: C1=CC2=C(C=C(C(=C2N=C1)O)N=NC3=CC4=C(C=C3)C=C(C=C4)S(=O)(=O)O)S(=O)(=O)O + CC(C)C[C@H](NC(=O)[C@H](Cc1ccccc1)NC(=O)c1cnccn1)B(O)O [Bortezomib] (partner 0.002 µM)
How it was run: as §1

Cell Line	relative viability ([1]; first compound 0.01 µM)	relative viability ([1]; first compound 0.3162 µM)	relative viability ([1]; first compound 1 µM)	relative viability ([2]; first compound 0.08 µM)	relative viability ([2]; first compound 0.253 µM)	relative viability ([2]; first compound 0.8 µM)	relative viability ([2]; first compound 2.53 µM)	relative viability ([2]; first compound 8 µM)	relative viability ([3]; first compound 0.01 µM)	relative viability ([3]; first compound 0.03162 µM)	relative viability ([3]; first compound 0.3162 µM)	relative viability ([3]; first compound 1 µM)	relative viability ([1]; first compound 0.03162 µM)	relative viability ([4]; first compound 0.08 µM)	relative viability ([4]; first compound 0.253 µM)	relative viability ([4]; first compound 0.8 µM)	relative viability ([4]; first compound 2.53 µM)	relative viability ([4]; first compound 8 µM)
NCI-H1648	0.63	0.578	1.12															
SK-MES-1				0.96	0.886	0.963	1	0.948										
HCC-366	0.326	0.293	0.371	0.759	0.445	0.404	0.618	0.46	1.26	0.864	1.07	0.442	0.228	1.03	1.03	1.02	1.13	0.985
201T	0.595	0.645	0.683	1.1	1.07	1.02	1.09	0.995	1.08	1.03	1.1	1.09	0.591	1.09	1.1	1.07	1.11	1
HCC-827	0.215	0.21	0.237	0.97	0.886	0.971	0.911	0.998	1.1	1.1	1.05	1.06	0.17	1.06	0.95	0.948	1.02	1.03
NCI-H647	0.353	0.552	0.361	1.36	0.865	1.05	1.08	0.962	1.04	0.909	1.21	0.564	0.481	1.2	1.08	0.97	0.953	1.19
NCI-H2023				0.831	0.702	0.654	0.726	0.483	1.12	0.985	0.855	0.503		0.945	0.945	1.01	1.15	0.978
NCI-H520				0.973	0.808	0.802	0.692	0.869	0.745	0.628	0.413	0.323		0.777	0.598	0.619	0.551	0.459
RERF-LC-KJ	0.87	1.18	1.03	0.828	0.797	0.782	0.872	0.869	1.1	1.14	1.08	0.797	0.698	1.39	1.1	1.08	1.2	1.14
A-427	0.791	0.883	0.502	1.05	0.814	0.978	1	0.876	1.02	0.961	1.04	0.792	0.627	0.956	1.02	0.981	1.04	0.966
NCI-H441	1.01	1.2	1.02	0.762	0.672	0.631	0.714	0.601	0.449	0.394	0.671	0.497	1.16	0.576	0.385		0.484	0.718
NCI-H1703		0.152	0.148	0.795	0.717	0.526	0.559	0.735	0.392	0.323	0.182	0.151		0.316	0.306	0.355	0.39	0.26
NCI-H1792	0.759	0.571	0.467	1.15	0.947	0.933	1.02	0.961	0.752	0.89	0.882	0.888	0.554	1.09	0.931	0.886	0.976	0.908
Calu-6				0.96	0.761	0.763	0.817	0.821	1.11	0.975	1	0.328		0.982	1.07	1.05	1.06	1.02
SK-LU-1				1	0.952	0.854	0.923	0.93	1.08	1.14		1.15		1.05	0.942	0.963	1.1	0.99
PC-3 [JPC-3]	0.908	0.671	0.992	1.07	1.02	0.999	0.978	0.966	0.947	0.863	0.86	0.848	0.844	0.908	0.849	0.768	0.794	0.851
EMC-BAC-2	1.09	1.03	1.19	0.777	0.751	0.704	0.806	0.757	1.04	1.07	1.01	1.07	1.1	1.1	1.06	1.06	1.14	1
LK-2	0.456	0.347	0.19	0.275	0.223	0.244	0.218	0.162					0.329					
NCI-H2126	1	1.04	1.13	1.09	0.937	0.993	1.03	1.01	1.17	1.14	1.13	1.17	1.1	1.14	1.12	1.11	1.08	1.11
NCI-H3122	1.01	1.02	0.752	0.285	0.29	0.275	0.271	0.274	1.03	1.01	1.06	0.688	1.11	0.975	0.899	1.02	0.996	0.987
NCI-H1975	0.691	0.76	0.638	1.1	0.961	1.01	0.994	0.929	0.352	0.301	0.433	0.202	0.744	0.389	0.385	0.377	0.327	0.42
NCI-H1944	0.528	0.699	0.479	1.24	1.1	1.09	1.12	0.846					0.472					
LU99A	0.329	0.538	0.342	0.626	0.605	0.521	0.57	0.574	1.15	1.07	1.14	0.988	0.29	1.27	1.13	1.04	0.986	1.29

Cell Line	relative viability ([1]; first compound 0.01 µM)	relative viability ([1]; first compound 0.3162 µM)	relative viability ([1]; first compound 1 µM)	relative viability ([2]; first compound 0.08 µM)	relative viability ([2]; first compound 0.253 µM)	relative viability ([2]; first compound 0.8 µM)	relative viability ([2]; first compound 2.53 µM)	relative viability ([2]; first compound 8 µM)	relative viability ([3]; first compound 0.01 µM)	relative viability ([3]; first compound 0.03162 µM)	relative viability ([3]; first compound 0.3162 µM)	relative viability ([3]; first compound 1 µM)	relative viability ([1]; first compound 0.03162 µM)	relative viability ([4]; first compound 0.08 µM)	relative viability ([4]; first compound 0.253 µM)	relative viability ([4]; first compound 0.8 µM)	relative viability ([4]; first compound 2.53 µM)	relative viability ([4]; first compound 8 µM)
SW 1573				0.842	0.78	0.836	0.85	0.742	0.981	0.842	0.884	0.428		0.931	1.02	1.04	0.976	1.03
NCI-H2347	0.625	0.725	0.469	0.691	0.674	0.651	0.768	0.636	0.916	0.873	0.952	1.27	0.843	1.23	0.962	0.982	0.98	0.955
NCI-H2009				1.14	1.04	1.09	1.07	1.02	1.08	0.908	0.96	0.704		0.909	0.921	0.965	0.968	0.916
HCC-15	1.18	1.17	1.14	0.957	0.851	0.806	0.824	0.77	1.07	1.01	0.852	0.977	1.37	1.16	1.02	1.02	0.985	0.992
HCC-44	0.983	1.08	1	0.935	0.767	0.807	0.819	0.859	0.752	1.02	1.01	0.979	0.998	0.903	0.835	0.931	0.905	0.9
COR-L23				0.653	0.63	0.572	0.671	0.502	0.994	0.863	0.82	0.2		0.982	0.953	1.06	0.962	1.03
HCC-78	0.609	0.616	0.815	0.388	0.336	0.328	0.337	0.203	0.479	0.38	0.6	0.516	0.636	0.513	0.469	0.475	0.417	0.526
NCI-H1299				0.892	0.971	0.933	0.943	0.988	1.05	0.996	1.05	1.28		1.06	0.99	0.999	1.02	1.03
NCI-H1650				1.05	0.894	0.962	1.15	1.01	0.19	0.203	0.183	0.194		0.196	0.212	0.22	0.193	0.202
NCI-H1793	0.578	0.409	0.543										0.573					
COR-L 105				0.999	0.71	0.797	0.881	0.717	0.75	0.898	0.65	0.344		0.806	0.662	0.83	0.87	0.757
NCI-H2228				0.399	0.597	0.642	0.587	0.482	0.977	0.801	0.66	0.8		1.17	1.01	0.917	1.01	0.96
SW 900	0.637	0.677	0.477										0.616					
NCI-H661				1.03	0.905		1.01	0.971	0.743	0.755	0.786	0.567		0.838	0.838	0.769	0.829	0.809
NCI-H1563				0.875	0.883	0.886	0.851	0.873	0.874	0.905	0.901	0.85		0.848	0.952	0.959	0.857	0.994
A549				0.909	0.738	0.754	0.694	0.754										
NCI-H2342	0.514	0.508	0.447										0.507					
NCI-H2170	0.906	0.954	0.75	1.38	1.1	1.15	1.23	1.2					0.892					
NCI-H522	1	0.859	0.904										0.661					
NCI-H1395	0.359	0.425	0.348										0.391					
IA-LM				1.16	0.602	0.822	0.757	0.9	0.927	0.979	0.781	0.302		0.93	0.843	0.803	0.819	0.923
NCI-H358	0.423	0.521	0.37	0.582	0.606	0.616	0.618	0.351					0.558					
EBC-1				0.231	0.197	0.197	0.183	0.162	0.615	0.551	0.443	0.23		0.648	0.515	0.585	0.494	0.636
